# Reference: patent US12416018B2, “Regulation of gene expression by aptamer-mediated modulation of alternative splicing” (MEIRAGTX GENE REGULATION LIMITED, priority 2015, dated 2025)
# Entries after “also recorded” stand apart in the source; their conditions may differ. Where two headings read alike, the source gives them in different places.
# B1: 2IR-3: xpt-G17 cassette, two intron deletions; SEQ ID NO: 31 (nucleic acid)
# DNA: GTGAGTCTATGGGACCCTTGATGTTTTCTTTCCCTGCTCAAATCAGGGTAATTTTGCATTTGTAATTTTAAAAAATGCTTTCTTCTTTTAATATACTTTTTTGTTTATCTTATTTCTAATACTTTCCCTAATCTCTTTCTTTCAGGGCAATAATGATACAATGTATCATGCCGAGTAACGCTGTTTCTCTAACTTGTAGGAATGAATTCAGATATTTCCAGAGAATGAAAAAAAAATCTTCAGTAGAAGGTAATGTATAATCGCGTGGATATGGCACGCAAGTTTCTACCGGGCACCGTAAATGTCCGACTACATTACGCACCATTCTAAAGAATAACAGTGATAATTTCTGGGTTAAGGCAATAGCTGCTGAGGTTTCATATTGCTAATAGCAGCTACAATCCAGCTACCATTCTGCTTTTATTTTATGGTTGGGATAAGGCTGGATTATTCTGAGTCCAAGCTAGGCCCTTTTGCTAATCATGTTCATACCTCTTATCTTCCTCCCACAG
# modifications: xpt-G17-2IR-3
# B2: xpt-G17: intron-exon-intron cassette containing the xpt-G17 guanine riboswitch, SEQ ID NO: 15, inserted in various target genes (nucleic acid)
# DNA: GTGAGTCTATGGGACCCTTGATGTTTTCTTTCCCCTTCTTTTCTATGGTTAAGTTCATGTCATAGGAAGGGGAGAAGTAACAGGGTACACATATTGACCAAATCAGGGTAATTTTGCATTTGTAATTTTAAAAAATGCTTTCTTCTTTTAATATACTTTTTTGTTTATCTTATTTCTAATACTTTCCCTAATCTCTTTCTTTCAGGGCAATAATGATACAATGTATCATGCCGAGTAACGCTGTTTCTCTAACTTGTAGGAATGAATTCAGATATTTCCAGAGAATGAAAAAAAAATCTTCAGTAGAAGGTAATGTATAATCGCGTGGATATGGCACGCAAGTTTCTACCGGGCACCGTAAATGTCCGACTACATTACGCACCATTCTAAAGAATAACAGTGATAATTTCTGGGTTAAGGCAATAGCAATATTTCTGCATATAAATATTTCTGCATATAAATTGTAACTGATGTAAGAGGTTTCATATTGCTAATAGCAGCTACAATCCAGCTACCATTCTGCTTTTATTTTATGGTTGGGATAAGGCTGGATTATTCTGAGTCCAAGCTAGGCCCTTTTGCTAATCATGTTCATACCTCTTATCTTCCTCCCACAG
# modifications: xpt-G17 riboswitch
# B3: Camk2d-e16: DHFR-G17 vector with mouse calcium/calmodulin-dependent protein kinase II delta exon 16 in place of DHFR exon; SEQ ID NO: 59 (nucleic acid)
# DNA: GAGTAACGCTGTTTCTCTAACTTGTAGTGAGCCCCAAACTACTGTAATCCACAACCCTGACGGAAACAAGGTAATGT
# Key:
# [1] = test system: luciferase expression in HEK 293 cells; assay type: cell-based; details: for luciferase expression with / without theophylline (in words): HEK 293 cells
# Source text: A DHFR-acceptor vector was constructed to facilitate the cloning of an aptamer sequence attached to the hairpin stems with different length. The theophylline aptamer sequence used was: ggcgatac[…]gcagegtc (SEQ ID NO:9). Theophylline aptamer oligonucleotides (“oligos”) with 4 nucleotide overhang at 5′ end were synthesized (IDT), annealed and ligated to BsaI-digested DHFR-acceptor vector. HEK 293 cells were transfected with the luciferase reporter constructs with the regulation cassette containing the theophylline aptamer, as described in Example 1. Four hours after transfection, the media was aspirated, and new media with or without 3 mM theophylline was added, and luciferase was assayed 20 to 24 hours after theophylline treatment. The fold induction was expressed as the quotient of luciferase activity obtained in the presence of aptamer ligand divided by the value obtained in the absence of the aptamer ligand.
# [2] = test system: luciferase expression in HEK 293 cells; assay type: cell-based; details: for induced luciferase level as percent of Con1 (maximal expression): guanine treatment (500 μM), HEK 293 cells; for fold induction of luciferase expression over un-induced baseline: 500 µM; for regulation of luciferase expression by guanine (in words): with or without 500 μM guanine
# Description: (§1) Xpt-guanine aptamer with the following sequence: cactcatataat[…]cgact atgggtg (SEQ ID NO.: 10), was used to construct a riboswitch. Oligos containing the sequence of guanine aptamer and hairpin stem with 4 nucleotide 5′ overhang were synthesized (IDT), annealed and then ligated to BsaI-digested DHFR-acceptor vector. HEK 293 cells were transfected as described in Example 1. Four hours after transfection, the media was aspirated, and new media with or without 500 μM guanine was added. Luciferase expression was assayed 20 to 24 hrs after guanine treatment as described in Example 1 and Example 4. HepG2, AML12, RD and C2C12 (ATCC) were cultured using the protocol recommended by ATCC. The intron-exon-intron cassette containing the xpt-G17 riboswitch (SEQ ID NO.: 15) was inserted in the leader peptide sequences of the anti-KDR antibody gene and into the Stul site in mouse erythropoietin gene using Gibson cloning strategy (NEB). Constructs containing mouse erythropoietin (Epo) or anti-KDR antibody were transfected into HEK 293 cells. Four hour after transfection, the media was aspirated, and new media with or without 500 μM guanine was added. Supernatants were subjected to ELISA assay for the production of either anti-KDR antibody or the production of mouse Epo (R&D Systems).
# (§2) Constructs were made using Golden Gate cloning strategy (NEB). […] Luciferase activity was assayed as described in Example 5.
# The Con1 construct was used as a template for PCR amplification of intron fragments that have either upstream or downstream intron deletions. To generate constructs that have single intron deletions, PCR products were cloned into the constructs containing the xpt-G17 riboswitch using Golden Gate cloning strategy (NEB). To generate constructs with both upstream and downstream intron deletions, fragments released by EcoRI and BamHI from constructs with single deletions in the downstream intron sequence were cloned into EcoRI and BamHI-digested constructs with single deletions in the upstream intron sequence.
# Sequences of mutant human Wilms tumor 1 exon 5 (mutWT1-e5, SEQ ID NO.: 61), SIRT1 exon 6 (SIRT1-e6, SEQ ID NO.: 62), mouse calcium/calmodulin-dependent protein kinase II delta exon 16, or 17 (Camk2d-e16 or e17, SEQ ID NOs.: 59, 60), and synthetic exon ENEEE (SEQ ID NO.: 63) were synthesized (IDT) and cloned into the DHFR-G17 vector in place of the DHFR exon using Gibson Cloning kit (NEB). Plasmid DNA was transfected into HEK 293 cells, treated with 500 μM guanine, and luciferase assay performed as described in Example 1. The sequences of each exon with 5′ and 3′ splice sites are shown with exonic sequences in uppercase letters (Table 5, SEQ ID NOS.: 59 to 63).
# [3] = test system: luciferase expression in HepG2 cells; assay type: cell-based
# Description: as §1
# xpt-G15 double cassette = assay: Guanine dose response of luciferase expression, xpt-G15 double; assay type: cell-based
# Description: as §2
# [4] = test system: xpt-G17 containing cassette; assay: Guanine dose response of luciferase expression, single xpt-G17 cassette; assay type: cell-based; details: single copy xpt-G17 cassette
# Description: as §2
# [5] = test system: luciferase gene with two copies of the xpt-G15 containing regulatory cassette (xpt-G15 double); assay: Live animal bioluminescence imaging after hydrodynamic DNA delivery to mouse liver; assay type: in vivo, mice
# Description: Hydrodynamic DNA delivery and drug treatment: 5 μg or 10 μg of endotoxin-free plasmid DNA containing the luciferase gene with two copies of the xpt-G15 containing regulatory cassette (xpt-G15 double, SEQ ID NO.: 64; Example 8, FIG. 8a), diluted in saline (Qiagen Endofree kit) was injected through tail vein in a volume of 10% body weight over 5 to 10 seconds to 6-7 weeks old CD-1 female mice. Guanosine (Sigma) was suspended in 0.5% methylcellulose/0.25% Tween 80 (Sigma) in water freshly and administrated orally at 2 hr and 12 hr post DNA injection, or, delivered through intraperitoneal injection (IP) at 5 hr, 12 hr, 16 hr and 24 hr post DNA delivery.
# Noninvasive live animal bioluminescence imaging: before imaging, mice were anesthesized with 2% isoflurane, and injected with […] body weight of luciferin, and images were taken within 2 to 5 minutes after luciferin injection using Bruker Xtreme system at the indicated time point post DNA injection. Luciferase activity was expressed as mean photon/sec±s.d. The induction fold was calculated as the quotient of photon/sec obtained in mice treated with guanosine divided by value obtained in mice without guanosine treatment.
# [6] = test system: anti-KDR antibody production in HEK 293 cells; assay type: cell-based; details: 500 μM guanine
# Description: as §1
# [7] = test system: EGFP expression in HEK 293 cells; assay: Flow cytometry / imaging of EGFP with regulatory cassettes in HEK 293 cells; assay type: cell-based; details: stably transfected HEK 293, 500 μM guanine
# Description: The intron-mtDHFR-aptamer-intron cassette was PCR amplified and cloned using Golden Gate cloning strategy (NEB) into pEGFP-C1 vector. To obtain a cell line stably expressing EGFP with riboswitch, HEK-293 cells were electroporated with 20 ng of plasmid DNA. Forty eight hours after electroporation, cell culture was selected with 800 μg/ml G418 for 2 weeks for cells that stably express the cassette. Cells were trypsinized and cell suspension was subjected to flow cytometric analysis of intensity of GFP fluorescence using a Guava EasyCyte 8HT machine. The resulting data was analyzed using GuavaSoft2.2.2.
# as §2
molecule,measurement,setting,value
"DHFR_Theo13: theophylline aptamer cassette, 8 bp stem (chain 1 TTCAGTAGAAGGTAATGTGA; chain 2 GCACATTACGCACCAT; chemistry not fully specified)",luciferase expression with / without theophylline (in words),[1],luciferase expression is suppressed in the absence of theophylline
same,luciferase level as percent of Con1 control vector,[1]; in the presence of theophylline (3 mM),about 56%
DHFR_G17: luciferase construct containing xpt-G17 regulatory cassette (SEQ ID NO: 15) (chain 1 GTAGAAGGTAATGTAT; chain 2 CTACATTACGCAC; chemistry not fully specified),induced luciferase level as percent of Con1 (maximal expression),[2],about 65%
same,fold induction of luciferase expression,[3],more than 500 fold
"DHFR_G16: luciferase construct with xpt-guanine aptamer cassette, truncated stem (chain 1 GTAGAAGGTAATGTTAT; chain 2 CTAACATTACGCAC; chemistry not fully specified)",fold induction of luciferase expression over un-induced baseline,[2],about 800 fold
same,induced luciferase level as percent of Con1 (maximal expression),[2],83%
"DHFR_Theo14: theophylline aptamer cassette, 7 bp stem (chain 1 TTCAGTAGAAGGTAATGTA; chain 2 GACATTACGCACCAT; expressed or natural sequence)",luciferase expression with / without theophylline (in words),[1],no luciferase expression either with or without theophylline
DHFR_G15: luciferase construct with the xpt-G15 containing regulatory cassette (SEQ ID NO: 46) (chain 1 GTAGAAGGTAATGTGTAT; chain 2 CTACACATTACGCAC; chemistry not fully specified),fold induction of luciferase expression over un-induced baseline,[2],60 fold
same,induced luciferase level as percent of Con1 (maximal expression),[2],~100%
"DHFR_G14: luciferase construct with xpt-guanine aptamer cassette, truncated stem (chain 1 GTAGAAGGTAATGTGATAT; chain 2 CTATCACATTACGCAC; expressed or natural sequence)",induced luciferase level as percent of Con1 (maximal expression),[2],~100%
Nc1nc2nc[nH]c2c(=O)[nH]1 [guanine],EC50 for xpt-G15 double relative to single xpt-G17 (times lower),xpt-G15 double cassette; xpt-G15 double vs xpt-G17,5 times
same,EC50,"xpt-G15 double cassette; xpt-G15 double, luciferase",43 µM
same,EC50,[4],206 µM
Nc1nc2c(ncn2[C@@H]2O[C@H](CO)[C@@H](O)[C@H]2O)c(=O)[nH]1 [guanosine],fold induction at 100 mg/kg,"[5]; Mus musculus, ip, 100 mg/kg guanosine intraperitoneally, 11 hours post DNA injection, read-out: fold induction of luciferase compared to uninduced baseline",4.7
same,fold induction at 300 mg/kg,"[5]; Mus musculus, ip, 300 mg/kg guanosine intraperitoneally, 11 hours post DNA injection, read-out: fold induction of luciferase compared to uninduced baseline",16.2
same,luciferase expression in liver after oral guanosine (in words),[5]; oral dosing 2 hr and 12 hr after DNA delivery,higher luciferase expression at 9 hours post DNA; also recorded: dose related activation of expression of the regulated target gene in the liver of the mice
same,time of highest luciferase expression post DNA injection,[5]; oral guanosine,48 h
B1,fold induction of luciferase expression over un-induced baseline,[2],4744 fold
same,regulation of luciferase expression by guanine (in words),[2],significant increase in the fold of target gene expression
B2,induced antibody expression as percent of control construct containing the Con 1 intron sequences,[6],about 40%
same,time after guanine treatment at which fluorescence was detected,[7],6 h
B3,regulation of luciferase expression by guanine (in words),[2]; listed as CaMKIId-e16,equivalent fold induction to the DHFR exon with SRp40 activating mutation (mtDHFR)
same,regulation of luciferase expression by guanine (in words),[2]; listed as CamkIId-e16,nearly equivalent fold induction compared to DHFR-xpt-G17
